In US20210015884A1 (priority 2018, published 2021):

Tests used:
[1] = test system: IVA/PC virus; test: microbe, parasite or virus in culture; type: cell-based; details: Influenza A virus, MDCK, read-out: IC50 of Zanamivir
[2] = test system: m^6A methylation in viral RNA; type: cell-based, influenza A virus
[3] = test system: IVA/PC virus; type: cell-based, influenza A virus

Work on `CC(=O)N[C@H]1[C@H]([C@H](O)[C@H](O)CO)OC(C(=O)O)=C[C@@H]1N=C(N)N` [Zanamivir] yielded an IC50 [1] of 2 nM.

For “5′ GGACUGGACUGGACUGGACU 3′ (chemistry not given here) [Target]”, the “m^6A methylation in corresponding viral RNA” value [2] was “concomitant decrease”.

With `Cc1ccc(Cl)c(Nc2ccccc2C(=O)O)c1Cl` [MA, meclofenamic acid] the “effect on viral resistance to Zanamivir” value [3] was “potentiates viral resistance to Zanamivir”.
